Measured values: patent US20080269258A1, “Riboswitches, Structure-Based Compound Design with Riboswitches, and Methods and Compositions for Use of and with Riboswitches” (priority 2004, published 2008)
Values after ≈ are worked out from the molar mass of the structure shown. Like-named read-outs stand apart in the source and are kept apart here.

Legend:
[1] = tested on: guanine riboswitch RNA (GR); test: Isothermal titration calorimetry, guanine riboswitch RNA; type: binding, B. subtilis
Excerpt: Isothermal Titration Calorimetry. RNA for isothermal titration calorimetry (ITC) (Leavitt, S. & Freire, E. Direct measurement of protein binding energetics by isothermal titration calorimetry. Curr Opin Struct Biol 11, 560-6 (2001); Pierce, M., Raman, C. S. & Nall, B. T. Isothermal titration calorimetry of protein-protein interactions. […]

[2] = tested on: methicillin-resistant Staphylococcus aureus; test: Minimal inhibitory concentration, clinically relevant pathogens; type: cell-based; conditions: MRSA, read-out: Minimal inhibitory concentrations, MRSA
Bacillus anthracis = test: microbe, parasite or virus in culture; type: cell-based; conditions: read-out: Minimal inhibitory concentrations, BA
Streptococcus pneumoniae = test: Minimal inhibitory concentration, clinically relevant pathogens; type: cell-based; conditions: read-out: Minimal inhibitory concentrations, SP
Haemophilus influenza = test: as above; type: cell-based; conditions: pathogen without guanine riboswitch, read-out: Minimal inhibitory concentrations, HI
Mycobacterium smegmatis = test: as above; type: cell-based; conditions: Mycolicibacterium smegmatis; pathogen without guanine riboswitch; read-out: Minimal inhibitory concentrations, MS
[3] = biological target: guanine riboswitch (aptamer of the xpt-pbuX mRNA); test: In-line probing of ligand binding to the guanine riboswitch in vitro; design: species or system B. subtilis; conditions: for Kd: high Mg2+ ion concentrations (20 mM MgCl2), read-out: observed dissociation constant (Kd)
Excerpt: The putative anti-terminator interaction is represented by the boxes. Nucleotides that undergo structural alteration as determined by in-line probing (from C) are identified with squares. […] Asterisks denote alterations to the RNA sequence that facilitate in vitro transcription (5′ terminus) or that generate a restriction site (3′ terminus). Nucleotide numbers begin at the first nucleotide of the natural transcription start site. The translation start codon begins at position 186. […] Lanes designated NR, T1 and ^−OH contain RNA that was not reacted, subjected to partial digestion with RNase T1 (G-specific cleavage), or subjected to partial alkaline digestion, respectively. Selected bands corresponding to G-specific cleavage are identified.
Differences in chemical structure relative to guanine are encircled. Numbers on guanine represent the positions of the ring nitrogen atoms.
NR, T1 and OH identify no reaction, nuclease T1 partial digestion, and alkaline partial digestion respectively. In-line probing assays were conducted for ˜1 day, and a dampening of spontaneous RNA cleavage product bands in the J1/2, J2/3 and J3/1 regions are indicative of ligand binding.

purR repressor protein = purR repressor protein (Escherichia coli, UniProt P0ACP7); conditions: read-out: observed Kd; E. coli variant of purR repressor; cited from earlier work
Sequence of purR repressor protein (P0ACP7 whole entry): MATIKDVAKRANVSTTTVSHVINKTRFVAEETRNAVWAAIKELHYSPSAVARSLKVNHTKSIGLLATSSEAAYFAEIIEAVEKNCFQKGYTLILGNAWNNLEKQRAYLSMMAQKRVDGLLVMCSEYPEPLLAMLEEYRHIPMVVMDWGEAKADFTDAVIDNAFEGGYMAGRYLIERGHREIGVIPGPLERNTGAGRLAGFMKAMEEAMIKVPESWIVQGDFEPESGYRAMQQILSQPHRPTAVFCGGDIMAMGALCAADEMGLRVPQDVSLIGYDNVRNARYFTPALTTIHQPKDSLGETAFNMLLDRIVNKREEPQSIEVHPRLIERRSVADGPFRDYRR

[4] = biological target: adenine riboswitch RNA (AR); test: Isothermal titration calorimetry, adenine riboswitch RNA; type: binding; conditions: 50 mM K+HEPES, pH 7.5, 100 mM KCl, 10 mM MgCl2, 30° C.
Method: Isothermal Titration Calorimetry. […] All experiments were performed with a Microcal MCS ITC instrument at 30° C. […] Titration data was analyzed using Origin ITC software (Microcal Software Inc.) and fit to a single-site binding model.

[5] = 50 mM K+HEPES, 100 mM KCl, 10 mM MgCl2, 30° C.
[6] = 50 mM K+HEPES, 100 mM KCl, 10 mM MgCl2, 30° C., read-out: Kd

| Compound | ΔH [1, 5] | ΔS [1, 5] | Kd [1, 6] | Kd [4] | ΔH [4] | ΔS [4] | further results |
| --- | --- | --- | --- | --- | --- | --- | --- |
| Nc1nc2nc[nH]c2c(=S)[nH]1 [6-Thioguanine] | -40.6 ± 14.5 kcal/mol | −101 ± 47.5 cal/mol · deg | 73.7 ± 10 nM | – | – | – | – |
| CN[C@H](CC(C)C)C(=O)N[C@H]1C(=O)N[C@@H](CC(N)=O)C(=O)N[C@H]2C(=O)N[C@H]3C(=O)N[C@H](C(=O)N[C@H](C(=O)O)c4cc(O)cc(O)c4-c4cc3ccc4O)[C@H](O)c3ccc(c(Cl)c3)Oc3cc2cc(c3O[C@@H]2O[C@H](CO)[C@@H](O)[C@H](O)[C@H]2O[C@H]2C[C@](C)(N)[C@H](O)[C@H](C)O2)Oc2ccc(cc2Cl)[C@H]1O [Vancomycin] | – | – | – | – | – | – | MIC [2]: 1 µg/mL (≈ 0.69 µM); MIC (Bacillus anthracis): 1.5 µg/mL (≈ 1.04 µM); MIC (Streptococcus pneumoniae): 0.25 µg/mL (≈ 0.173 µM); MIC (Haemophilus influenza): 64 µg/mL (≈ 44.2 µM); MIC (Mycobacterium smegmatis): 24 µg/mL (≈ 16.6 µM) |
| O=c1[nH]cnc2nc[nH]c12 [Hypoxanthine] | -31.3 ± 0.01 kcal/mol | −75.3 ± 0.145 cal/mol · deg | 759 ± 66 nM | – | – | – | Kd [3]: 50 nM; ΔHobs ([1]; 0.25 mM MgCl2, 30° C.): -41.9 ± 0.39 kcal/mol; ΔSobs ([1]; 0.25 mM MgCl2, 30° C.): −113 cal mol^−1 K^−1; Kd ([1]; 0.25 mM MgCl2, 30° C., read-out: Kd): 4000 ± 190 nM; ΔHobs ([1]; 1.0 mM MgCl2, 30° C.): -35.4 ± 0.93 kcal/mol; ΔSobs ([1]; 1.0 mM MgCl2, 30° C.): −91 cal mol^−1 K^−1; Kd ([1]; 1.0 mM MgCl2, 30° C., read-out: Kd): 2990 ± 190 nM; ΔHobs ([1]; 5.0 mM MgCl2, 30° C.): -28.4 ± 0.48 kcal/mol; ΔSobs ([1]; 5.0 mM MgCl2, 30° C.): −67 cal mol^−1 K^−1; Kd ([1]; 5.0 mM MgCl2, 30° C., read-out: Kd): 1340 ± 94 nM; ΔHobs ([1]; 20 mM MgCl2, 30° C.): -33.5 ± 0.43 kcal/mol; ΔSobs ([1]; 20 mM MgCl2, 30° C.): −82 cal mol^−1 K^−1; Kd ([1]; 20 mM MgCl2, 30° C., read-out: Kd): 732 ± 34 nM; Kd ([1]; ITC, more physiological ionic strength (0.25-1 mM Mg2+), read-out: observed Kd): 3000 to 4000 nM; Kd (purR repressor protein): 9000 nM |
| COc1nc(N)nc2nc[nH]c12 [O-Methylguanine] | -18.7 kcal/mol | −23.3 cal/mol · deg | 3 nM | – | – | – | – |
| Nc1nc(F)nc2nc[nH]c12 [2-Fluoroadenine] | – | – | – | 4020 ± 1070 nM | -37.4 ± 3.41 kcal/mol | −98.7 ± 11.8 Cal/mol · deg | – |
| Nc1nc2nn[nH]c2c(=O)[nH]1 [Compound 8-Azaguanine, 8-Azaguanine] | -46.9 ± 9.87 kcal/mol | −121 ± 32.6 cal/mol · deg | 48.7 ± 100 nM | – | – | – | – |
| Nc1ncnc2nc[nH]c12 [Adenine] | – | – | – | 469 ± 41 nM | -34.5 ± 0.05 kcal/mol | −84.8 ± 0.30 Cal/mol · deg | – |
| Nc1nc(N)c(N)c(N)n1 [2,4,5,6-Tetraaminopyrimidine] | – | – | – | 24900 ± 4250 nM | -43.2 ± 3.50 kcal/mol | −122 ± 12.0 Cal/mol · deg | – |
| Nc1nc2nc[nH]c2c(=O)[nH]1 [Guanine] | -53.5 ± 6.98 kcal/mol | −137 ± 24.8 cal/mol · deg | 4 ± 3 nM | – | – | – | affinity of the riboswitch for guanine over hypoxanthine [3]: tenfold; Kd [3]: 5 nM |
| CSc1nc(N)nc2nc[nH]c12 [6-Methylthioguanine] | -24.5 ± 0.20 kcal/mol | −46.9 ± 0.24 cal/mol · deg | 41.8 ± 3 nM | – | – | – | – |
| c1ncc2[nH]cnc2n1 [Purine] | – | – | – | 110000 ± 3000 nM | -25.4 ± 0.99 kcal/mol | −65.4 ± 3.00 Cal/mol · deg | – |
| Nc1ncc2[nH]cnc2n1 [2-Aminopurine] | -46.4 ± 2.66 kcal/mol | −129 ± 8.20 cal/mol · deg | 4360 ± 1200 nM | 251 ± 26 nM | -31.8 ± 2.64 kcal/mol | −73.9 ± 9.26 Cal/mol · deg | – |
| O=c1[nH]c(=O)c2[nH]cnc2[nH]1 [Xanthine] | -34.6 ± 10.4 kcal/mol | −94.4 ± 34.5 cal/mol · deg | 50500 ± 5800 nM | – | – | – | – |
| Cc1ncnc2nc[nH]c12 [6-Methylpurine] | – | – | – | 25200 ± 1630 nM | -31.5 ± 0.42 kcal/mol | −82.9 ± 1.25 Cal/mol · deg | – |
| Nc1nc(N)c2[nH]cnc2n1 [2,6-Diaminopurine] | – | – | – | 17 ± 6 nM | -40.3 ± 2.91 kcal/mol | −97.6 ± 4.00 Cal/mol · deg | – |
| Nc1cc(N)nc(N)n1 [2,4,6-Triaminopyrimidine] | – | – | – | 18300 ± 1670 nM | -37.7 ± 0.23 kcal/mol | −102 ± 0.70 Cal/mol · deg | – |
| Nc1nc2c(c(=O)[nH]1)CC=N2 [7-Deazaguanine] | -42.0 ± 3.72 kcal/mol | −105 ± 11.7 cal/mol · deg | 49 ± 13 nM | – | – | – | – |
| Nc1nc(Br)c2[nH]cnc2n1 [6-Bromoguanine] | -39.0 ± 7.79 kcal/mol | −103 ± 26.2 cal/mol · deg | 2120 ± 560 nM | 2700 ± 1160 nM | -50.4 ± 0.16 kcal/mol | −141 ± 1.90 Cal/mol · deg | – |
| Nc1nc(Cl)c2nc[nH]c2n1 [6-Chloroguanine] | -43.6 ± 13.1 kcal/mol | −116 ± 43.2 cal/mol · deg | 856 ± 14 nM | 721 ± 44 nM | -44.3 ± 7.2 kcal/mol | −98.6 ± 4.39 Cal/mol · deg | – |
